Measured values published in patent US11738062B2, “Herbal medicine extracts and uses and methods of preparation thereof” (ALPHA OASIS LLC, priority 2018, dated 2023).

Tested on: collagen-induced arthritis DBA/1J mouse model
Experiment: murine model of collagen-induced arthritis, Arthritic Index (AI) scoring
Type: in vivo
Conditions: #4 and #10 100 μL topical patch, ENBREL 3 mg/kg subcutaneous

ENBREL®
rate of disease progression (overall arthritis severity, FIG. 2) (14 days of daily treatment): swiftly arrested | reduction in arthritis severity score (AI) (after 14 days of daily treatment, compared to Group 2 (diseased, vegetable oil)): 71%
